In US20260055108A1, “TRIAZINE COMPOUNDS AND USES THEREOF” (HUTCHMED LIMITED, priority 2022, published 2026) one finds GI50 and IC50 data, which are given here for 22 compounds.

Like-named read-outs stand apart in the source and are kept apart here. Where only a bound is given, the exact number is not on record here.

Test [1] concerns MV-4-11 cells (human acute myelogenous leukemia cell line carrying MLL-AF4 mutation). Put plainly: Cell proliferation assay, MV-4-11 (CellTiter-Glo). In kind it is cell-based. Put shortly: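 MV-4-11 cells (3000/well, IMDM with 10% HIFBS and 50 μM β-mercaptoethanol) exposed to compound at 1.100–0.001 μM final, 0.1% DMSO, for 3 days at 37°C. Viability read by CellTiter-Glo luminescence on day 0 and day 3, normalised to day-0 and untreated wells.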
Background: In ATP-based viability assays light output follows the ATP content of the culture.

Test [2] addresses Recombinant human Menin protein (2-610) / MLL polypeptide binding (Homo sapiens (Human), UniProt O00255). Description: Menin and MLL protein binding at a molecular level (fluorescence polarization method). To be noted: inhibition of Menin / MLL polypeptide binding. Put shortly: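 Binding of recombinant human Menin (2-610) to 6-FAM-labelled MLL peptide measured by fluorescence polarization (ex 480/em 535 nm) in Tris/NaCl/TCEP buffer, pH 7.5, 2% DMSO. Compound preincubated with Menin 30 min at room temperature, then peptide added for 30 min in the dark. Tested at 1.000 down to 0.0005 μM final.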
On the technique in general: In fluorescence polarisation assays a small probe gives low polarisation when free and higher when bound to something large.

[3] abbreviates: Homo sapiens, MV4-11, 72 h, MV-4-11 cells, 3 days treatment, CellTiter-Glo, read-out: GI50.

Recombinant human Menin protein (2-610) / MLL polypeptide binding, sequence (O00255 2-610): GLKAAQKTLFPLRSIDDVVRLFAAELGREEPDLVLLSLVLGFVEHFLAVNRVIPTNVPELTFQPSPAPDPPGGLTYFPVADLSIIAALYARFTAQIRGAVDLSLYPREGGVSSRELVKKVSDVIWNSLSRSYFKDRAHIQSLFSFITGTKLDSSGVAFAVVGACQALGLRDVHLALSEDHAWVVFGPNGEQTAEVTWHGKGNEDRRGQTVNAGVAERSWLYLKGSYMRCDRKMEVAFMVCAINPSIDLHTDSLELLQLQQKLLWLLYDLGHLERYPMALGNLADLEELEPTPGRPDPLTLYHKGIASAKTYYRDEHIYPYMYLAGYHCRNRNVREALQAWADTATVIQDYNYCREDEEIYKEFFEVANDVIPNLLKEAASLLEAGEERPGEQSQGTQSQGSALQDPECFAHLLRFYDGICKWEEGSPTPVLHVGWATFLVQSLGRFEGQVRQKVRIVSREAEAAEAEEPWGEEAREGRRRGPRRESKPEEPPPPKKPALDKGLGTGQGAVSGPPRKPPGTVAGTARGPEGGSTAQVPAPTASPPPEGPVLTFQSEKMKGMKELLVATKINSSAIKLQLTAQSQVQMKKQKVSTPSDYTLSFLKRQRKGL

As usually defined, the GI50 is the concentration that inhibits growth by half. Broadly, the IC50 is the midpoint of a concentration-inhibition curve. On to `CCN(C(=O)c1cc(F)ccc1Oc1nncnc1N1CC2(CCN(Cc3ccc4c(c3)cc(C#N)n4CCO)CC2)C1)C(C)C` [Compound 162], for which the GI50 in test [1] (setting [3]) worked out at 30 nM. For the same compound, the concentration for half-maximal inhibition (IC50) in test [2] came out at 13.9 nM.

As to `CCN(C(=O)c1cc(F)ccc1Oc1nncnc1N1CC(C2(N(CCO)Cc3ccc4[nH]c(C#N)cc4c3C)CC2)C1)C(C)C` [Compound 163], in test [1] (setting [3]), the GI50 came to 49 nM. Also, in test [2], the IC50 came to 4.9 nM.

Turning to `CCN(C(=O)c1cc(F)ccc1Oc1nncnc1N1CC2(CCN(CC3CCN(c4cccc(N)n4)CC3)CC2)C1)C(C)C` [Compound 164, 2-((5-(7-((1-(6-aminopyridin-2-yl)piperidin-4-yl)methyl)-2,7-diazaspiro[3.5]nonan-2-yl)-1,2,4-triazin-6-yl)oxy)-N-ethyl-5-fluoro-N-isopropylbenzamide], the GI50 in test [1] (setting [3]) is 27 nM. Moreover, in test [2], the concentration for half-maximal inhibition (IC50) turned out to be 4.6 nM.

Consider `CCN(C(=O)c1cc(F)ccc1Oc1nncnc1N1CC2(CCN(CC3CCN(c4ccncn4)CC3)CC2)C1)C(C)C` [Compound 165, N-ethyl-5-fluoro-N-isopropyl-2-((5-(7-((1-(pyrimidin-4-yl)piperidin-4-yl)methyl)-2,7-diazaspiro[3.5]nonan-2-yl)-1,2,4-triazin-6-yl)oxy)benzamide], for which the concentration for 50% growth inhibition (GI50) in test [1] (setting [3]) came out at 13 nM. Moreover, in test [2], the IC50 is 5.3 nM.

Take `CCN(C(=O)c1cc(F)ccc1Oc1nncnc1N1CC2(CCN(CC3CCN(c4cccnn4)CC3)CC2)C1)C(C)C` [Compound 166]: in test [1] (setting [3]), the concentration for 50% growth inhibition (GI50) was 7 nM. Also, in test [2], the IC50 was 2.6 nM.

As for `CCN(C(=O)c1cc(F)ccc1Oc1nncnc1N1CC2(CCN(CC3CCN(c4ccnnc4)CC3)CC2)C1)C(C)C` [Compound 167], the GI50 in test [1] (setting [3]) came to 18 nM. Further, in test [2], the 50% inhibitory concentration (IC50) was 14.9 nM.

As for `CCN(C(=O)c1cc(F)ccc1Oc1nncnc1N1CC2(CCN(CC3CCN(c4cccc(=O)n4C)CC3)CC2)C1)C(C)C` [Compound 168], the GI50 in test [1] (setting [3]) came out at 133 nM. In addition, the IC50 in test [2] was above 200 nM.

Turning to `CCN(C(=O)c1cc(F)ccc1Oc1nncnc1N1CC2(CCN(CC3CCN(C(=O)c4cnn5cccnc45)CC3)CC2)C1)C(C)C` [Compound 169, N-ethyl-5-fluoro-N-isopropyl-2-((5-(7-((1-(pyrazolo[1,5-a]pyrimidine-3-carbonyl)piperidin-4-yl)methy)-2,7-diazaspiro[3.5]nonan-2-yl)-1,2,4-triazin-6-yl)oxy)benzamide], the GI50 in test [1] (setting [3]) was found to be 108 nM. Further, the IC50 in test [2] was found to be 166 nM.

For the compound `CCN(C(=O)c1cc(F)ccc1Oc1nncnc1N1CC2(CCN(CC3CCN(C(=O)OC)CC3)CC2)C1)C(C)C` [Compound 170, methyl 4-((2-(6-(2-(ethyl(isopropyl)carbamoyl)-4-fluorophenoxy)-1,2,4-triazin-5-yl)-2,7-diazaspiro[3.5]nonan-7-yl)methyl)piperidine-1-carboxylate], in test [1] (Homo sapiens, MV4-11, 72 h), halving of growth (GI50) required 49 nM. In test [2], the IC50 came out at 34.4 nM.

Regarding `CCN(C(=O)c1cc(F)ccc1Oc1nncnc1N1CC2(CCN(C(C)C3CCN(c4cc(OC)c(OC)nn4)CC3)CC2)C1)C(C)C` (centres unmarked) [Compound 171, 2-((5-(7-(1-(1-(5,6-dimethoxypyridazin-3-yl)piperidin-4-yl)ethyl)-2,7-diazaspiro[3.5]nonan-2-yl)-1,2,4-triazin-6-yl)oxy)-N-ethyl-5-fluoro-N-isopropylbenzamide], the GI50 in test [1] (setting [3]) stood at 56 nM. In test [2], the IC50 was determined as 41.3 nM.

`CCN(C(=O)c1cc(F)ccc1Oc1nncnc1N1CC2(CCN(C(=O)C3CCN(c4ccccn4)CC3)CC2)C1)C(C)C` [Compound 172, N-ethyl-5-fluoro-N-isopropyl-2-((5-(7-(1-(pyridin-2-yl)piperidine-4-carbonyl)-2,7-diazaspiro[3.5]nonan-2-yl)-1,2,4-triazin-6-yl)oxy)benzamide]: the GI50 in test [1] (setting [3]) was determined as 76 nM. Moreover, the IC50 in test [2] was above 200 nM.

For `CCN(C(=O)c1cc(F)ccc1Oc1nncnc1N1CC2(CCC(CN3CCN(c4ccccn4)CC3)CC2)C1)C(C)C` [Compound 173, N-ethyl-5-fluoro-N-isopropyl-2-((5-(7-((4-(pyridin-2-yl)piperazin-1-yl)methyl)-2-azaspiro[3.5]nonan-2-yl)-1,2,4-triazin-6-yl)oxy)benzamide], the GI50 in test [1] (Homo sapiens, MV4-11, 72 h) came out at 292 nM. The concentration for half-maximal inhibition (IC50) in test [2] was found to be 750 nM.

`[2H]C(c1ccc2[nH]c(C#N)cc2c1C)N1CCC2(CC1)CN(c1ncnnc1Oc1ccc(F)cc1C(=O)N(CC)C(C)C)C2` (centres unmarked) [Compound 175, 2-((5-(7-((2-cyano-4-methyl-1H-indol-5-yl)methyl-d)-2,7-diazaspiro[3.5]nonan-2-yl)-1,2,4-triazin-6-yl)oxy)-N-ethyl-5-fluoro-N-isopropylbenzamide]: in test [1] (setting [3]), the GI50 was found to be 4 nM. Further, the IC50 in test [2] was determined as 1.5 nM.

For `[2H]C(c1ccc2oc(C#N)cc2c1)N1CCC2(CC1)CN(c1ncnnc1Oc1ccc(F)cc1C(=O)N(CC)C(C)C)C2` (centres unmarked) [Compound 176], the 50% growth inhibitory concentration (GI50) in test [1] (setting [3]) came to 26 nM. In addition, in test [2], the IC50 worked out at 6.1 nM.

The compound `COc1cc(N2CCC(CN3CCC4(CC3)CN(c3ncnnc3Oc3ccc(F)cc3C(=O)NC(C)C)C4)CC2)nnc1OC` [Compound 177, 2-((5-(7-((1-(5,6-dimethoxypyridazin-3-yl)piperidin-4-yl)methyl)-2,7-diazaspiro[3.5]nonan-2-yl)-1,2,4-triazin-6-yl)oxy)-5-fluoro-N-isopropylbenzamide] yielded a GI50 in test [1] (Homo sapiens, MV4-11, 72 h) of 92 nM. Further, the IC50 in test [2] turned out to be 47.3 nM.

Consider `CCNC(=O)c1cc(F)ccc1Oc1nncnc1N1CC2(CCN(CC3CCN(c4cc(OC)c(OC)nn4)CC3)CC2)C1` [Compound 178, 2-((5-(7-((1-(5,6-dimethoxypyridazin-3-yl)piperidin-4-yl)methyl)-2,7-diazaspiro[3.5]nonan-2-yl)-1,2,4-triazin-6-yl)oxy)-N-ethyl-5-fluorobenzamide], for which the GI50 in test [1] (setting [3]) was 126 nM. Besides, in test [2], the IC50 worked out at 124 nM.

On to `CCNC(=O)c1cc(F)ccc1Oc1nncnc1N1CC2(CCN(CC3CCN(c4cc(OC)c(OC)nn4)CC3)CC2)C1` [Compound 179, (Z)-2-((5-(7-((1-(5,6-dimethoxypyridazin-3-yl)piperidin-4-yl)methyl)-2,7-diazaspiro[3.5]nonan-2-yl)-1,2,4-triazin-6-yl)oxy)-N-ethyl-5-fluorobenzimidic acid], for which the GI50 in test [1] (MV-4-11 cells, 3 days treatment, CellTiter-Glo, read-out: GI50) is 155 nM. In test [2], the IC50 amounted to 560 nM.

For `C=CC(=O)Nc1ccc(N2CC3(CCC(CN4CCC5(CC4)CN(c4ncnnc4Oc4ccc(F)cc4C(=O)N(CC)C(C)C)C5)CC3)C2)cc1` [Compound 180], the GI50 in test [1] (setting [3]) is 10 nM. For the same compound, in test [2], the 50% inhibitory concentration (IC50) worked out at 3.9 nM.

For the compound `C=CC(=O)Nc1cccc(N2CC3(CCC(CN4CCC5(CC4)CN(c4ncnnc4Oc4ccc(F)cc4C(=O)N(CC)C(C)C)C5)CC3)C2)c1` [Compound 181], the GI50 in test [1] (setting [3]) amounted to 7 nM. Moreover, in test [2], the IC50 came out at 25.5 nM.

Take `C=CC(=O)N1CCC(c2ccc(CN3CCC4(CC3)CN(c3ncnnc3Oc3ccc(F)cc3C(=O)N(CC)C(C)C)C4)cc2)CC1` [Compound 182]: the GI50 in test [1] (setting [3]) was determined as 430 nM. For the same compound, the half-maximal inhibitory concentration (IC50) in test [2] was above 1000 nM.

As to `C=CC(=O)Nc1cccc(N2CCC(CN3CCC4(CC3)CN(c3ncnnc3Oc3ccc(F)cc3C(=O)N(CC)C(C)C)C4)CC2)c1` [Compound 183], the GI50 in test [1] (setting [3]) stood at 2 nM. In test [2], the IC50 amounted to 4 nM.

Consider `COc1cc(N2CCC(CN3CCC4(CC3)CN(c3ncnnc3Oc3ccc(F)cc3C(=O)O)C4)CC2)nnc1OC` [Compound 184, 2-((5-(7-((1-(5,6-dimethoxypyridazin-3-yl)piperidin-4-yl)methyl)-2,7-diazaspiro[3.5]nonan-2-yl)-1,2,4-triazin-6-yl)oxy)-5-fluorobenzoic acid], for which the GI50 in test [1] (setting [3]) was above 1100 nM. The IC50 in test [2] was above 100 nM.
